Results as given in US10617622B2, “Hair restoration and/or hair growth promoting composition containing soyasaponin” (AMOREPACIFIC CORPORATION, priority 2015, dated 2020).

Legend:
[1] = test system: human hair follicle organ; test: Hair growth promoting effect using human hair follicle organ culture; format: cell-based; conditions: for Average growth length (mm): 8 days after the treatment, hair follicles of a person
Procedure: The hair follicle organ was isolated from the scalp tissue of the occipital region of a person one at a time, and cultured in William's E medium (containing L-glutamine (2 mM), insulin (10 μg/ml), hydrocortisone (40 ng/ml), antibiotics (1%) antimycotic (1%)).
The hair follicles grown on the third day after culturing were selected and cut into 3 mm. As for the selected hair follicle tissues, those without drug treatment were used as a control group, and the hair follicle tissues were each treated with soyasaponin Aa at 1 ppm, 5 ppm, and 10 ppm. Then, the hair length was measured 8 days after the treatment.

[2] = test system: human dermal papilla cell line; test: Proliferation effect on hair follicle dermal papilla cells (WST-1 kit); format: cell-based; conditions: for hDPc proliferation (%): 24 hours after treatment, control = 100
Procedure: First, in the present invention, a human dermal papilla cell line was used (obtained from Prof. Kwan Oh Sang of dermatology in Seoul National University Hospital). The cell line was cultured for 24 hours in an incubator maintained at 5% CO2, 37° C. using DMEM (Dulbecco's modified Eagle's medium; Gibco BRL, Gaithersburg, Md., USA) containing 10% FBS, and then independently treated with soyasaponin Aa at 1 ppm, 10 ppm, and 20 ppm. DMSO was used as a negative control. Cell proliferation (%) was measured using a WST-1 kit (Roche) 24 hours after the treatment with the test materials.

[3] = test system: dermal papilla cells (DPC); test: Expression of hair growth factor VEGF in dermal papilla cells (VEGF ELISA); format: cell-based, human; conditions: 20 ppm, 24 hours
Procedure: In order to evaluate the degree of expression of vascular endothelial growth factor (VEGF) which is a growth factor necessary for transition of hair into the anagen phase as a growth factor necessary for angiogenesis by soyasaponin Aa, an in vitro system was applied to treat the soyasaponin Aa, and the activity thereof was evaluated. For the experiment, 4×10^5 dermal papilla cells (DPC) (P.11) of a person was seeded in a 12-well plate and cultured in DMEM (Dulbecco's modified Eagle's medium; GibcoBRL, Gaithersburg, Md., USA) containing 10% FBS (fetal bovine serum) overnight. After the culture, the cells were treated with soyasaponin Aa at 20 ppm. DMSO was used as a negative control. After 24 hours, the mixing solution with treated soyasaponin Aa was collected, and the degree of VEGF expression by the soyasaponin Aa was confirmed using VEGF ELISA (Vascular endothelial growth factor Enzyme-Linked Immunosorbent Assay; R&D biosystems).

Compound: CC(=O)O[C@@H]1[C@@H](OC(C)=O)[C@H](O[C@@H]2[C@@H](O)[C@H](O[C@@H]3[C@H](O)C(C)(C)C[C@H]4C5=CC[C@@H]6[C@@]7(C)CC[C@H](O[C@@H]8O[C@H](C(=O)O)[C@@H](O)[C@H](O)[C@H]8O[C@@H]8O[C@H](CO)[C@H](O)[C@H](O)[C@H]8O[C@@H]8O[C@H](CO)[C@@H](O)[C@H](O)[C@H]8O)[C@](C)(CO)[C@@H]7CC[C@@]6(C)[C@]5(C)CC[C@@]34C)OC[C@@H]2O)OC[C@H]1OC(C)=O [Soyasaponin Aa, soyasaponin Aa]
- Average growth length (mm) ([1]; 1 ppm): 1.71 mm
- Average growth length (mm) ([1]; 5 ppm): 2.05 mm
- hair length growth effect compared to the control group ([1]; 10 ppm): 1.5 times
- Average growth length (mm) ([1]; 10 ppm): 2.46 mm
- hDPc proliferation (%) ([2]; 1 ppm): 119%
- hDPc proliferation (%) ([2]; 10 ppm): 145%
- rate of increase in dermal papilla cell proliferation compared with the control group ([2]; 20 ppm): ≥ 1.7 times
- hDPc proliferation (%) ([2]; 20 ppm): 172%
- increase of VEGF expression compared to the control group ([3]; dermal papilla cells): ≥ 4 times
- VEGF (ng/ml) in culture medium ([3]; dermal papilla cells of a person, DMSO negative control): 16.7 ng/mL
